Tested on: HT-1080
Experiment: Reversal of erastin induced cell death in human HT-1080 cells assessed as cell viability preincubated for 1 hr followed by erastin addition and measured after 24 hrs by CCK8 method

Compound | EC50 [µM]
COc1ccc(NCc2cccn2-c2nnc(N3CCN(C)CC3)s2)c(OC)c1 | 7.8
COc1ccc(NCc2cccn2-c2nnc(N3CCN(C)CC3)s2)cc1OC | 19.2

Molecular target: T1, Phospholipid hydroperoxide glutathione peroxidase GPX4 (Homo sapiens, UniProt P36969)
T1 sequence (P36969 whole entry): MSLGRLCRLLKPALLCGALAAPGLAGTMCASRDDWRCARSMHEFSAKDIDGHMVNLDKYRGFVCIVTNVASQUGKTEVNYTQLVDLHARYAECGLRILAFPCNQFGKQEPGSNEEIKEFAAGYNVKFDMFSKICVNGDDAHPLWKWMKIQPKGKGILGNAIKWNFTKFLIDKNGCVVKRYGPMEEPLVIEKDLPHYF
Experiment: Binding affinity to GPX4 (unknown origin) assessed as dissociation constant by surface plasmon resonance

Kd [µM] | Compound
5.22 | COc1ccc(NCc2cccn2-c2nnc(N(C)C)s2)cc1OC
4.48 | COc1ccc(NCc2cccn2-c2nnc(C)s2)cc1OC
1.05 | COc1ccc(NCc2cccn2-c2cccc(Cl)n2)cc1OC
4.23 | COc1ccc(NCc2cccn2-c2nn3ccnc3s2)cc1OC
4.06 | COc1ccc(NCc2cc3ccccc3n2-c2nnc(N3CCN(C)CC3)s2)cc1OC
0.931 | COc1ccc(NCc2cccn2-c2nnc(NC(=O)c3cccc(F)c3)s2)cc1OC
2.1 | COc1ccc(NCc2cccn2-c2cccc(N3CCN(C)CC3)n2)cc1OC
5.69 | COc1ccc(NCc2cccn2-c2nnc(N3CCCCC3)s2)cc1OC
7.87 | COc1ccc(NCc2cccn2-c2nnc(N3CCN(C)CC3)s2)cc1
6.9 | COc1ccc(NCc2cccn2-c2ccc(N3CCN(C)CC3)s2)cc1OC
0.717 | COc1ccc(NCc2cccn2-c2nn3ccnc3s2)c(OC)c1
0.426 | COc1ccc(NCc2cccn2-c2nnc(N3CCN(C)CC3)s2)c(OC)c1
4.69 | COc1ccc(NCc2cccn2-c2nnc(NC(=O)c3ccc(F)cc3)s2)cc1OC
27.1 | COc1ccc(NCc2cccn2-c2nnc(N3CCOCC3)s2)cc1OC
0.17 | COc1ccc(NCc2cccn2-c2nnc(N)s2)cc1OC
9.8 | CCN(CC)c1nnc(-n2cccc2CNc2ccc(OC)c(OC)c2)s1
4.99 | COc1ccc(NCc2cccn2-c2nc3ccccc3s2)cc1OC
0.835 | CN1CCN(c2nnc(-n3cccc3CNc3ccc4c(c3)OCCO4)s2)CC1
5.86 | COc1ccc(NCc2cccn2-c2nnc(N3CCN(C)CC3)s2)cc1OC
1.14 | COc1ccc(NCc2cccn2-c2ccc(Cl)cc2)cc1OC
8.24 | COc1ccc(NCc2cccn2-c2cnc(C)s2)cc1OC
7.91 | COc1ccc(NCc2cccn2-c2nncs2)cc1OC
0.036 | CCCN1CCN(c2nnc(-n3cccc3CNc3ccc(OC)c(OC)c3)s2)CC1
1.27 | COc1ccc(NCc2cccn2-c2nnc(NC(=O)c3ccccc3)s2)cc1OC
3.43 | COc1ccc(NCc2cncn2-c2nnc(N3CCN(C)CC3)s2)cc1OC
10.5 | COc1ccc(NCc2cccn2-c2nnc(N3CCOCC3)s2)c(OC)c1
10.5 | COc1ccc(NCc2cccn2-c2nnc(NC(=O)c3ccccc3F)s2)cc1OC
10.7 | CCOc1cc(NCc2cccn2-c2nnc(N3CCN(C)CC3)s2)ccc1OC
4.64 | COc1ccc(NCc2ccnn2-c2nnc(N3CCN(C)CC3)s2)cc1OC

From ChEMBL document CHEMBL5614391, “GPX4 allosteric activators inhibit ferroptosis and exert myocardial protection in doxorubicin-induced myocardial injury mouse model” (Eur J Med Chem, 2024)
